Laboratory results from publication PMC11558128 (Advanced Science, 2024).
Positions count from the first letter of the chain named. Where two headings read alike, the source gives them in different places. Positions of bridges follow the written chain, without caps; N, C: chain ends. Residues, ends and D or L forms follow the SMILES beside them.

Assays:
Assay in all cases: cell-based
[1] = target: T1, hNav1.7 (Homo sapiens, UniProt Q15858); conditions: whole-cell patch clamp, mean ± S.E.M., SEM
T1 construct: expressed in transfected cells; host or cells: HEK293T
T1 sequence (O60939 30-215): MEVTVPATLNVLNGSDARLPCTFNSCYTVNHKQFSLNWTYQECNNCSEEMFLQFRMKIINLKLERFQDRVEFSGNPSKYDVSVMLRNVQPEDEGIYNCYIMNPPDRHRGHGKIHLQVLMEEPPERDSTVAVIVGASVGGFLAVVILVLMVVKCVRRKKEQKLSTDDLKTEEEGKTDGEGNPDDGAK
T1 sequence (Q15858 other isoform, or with tags, fused parts or gaps): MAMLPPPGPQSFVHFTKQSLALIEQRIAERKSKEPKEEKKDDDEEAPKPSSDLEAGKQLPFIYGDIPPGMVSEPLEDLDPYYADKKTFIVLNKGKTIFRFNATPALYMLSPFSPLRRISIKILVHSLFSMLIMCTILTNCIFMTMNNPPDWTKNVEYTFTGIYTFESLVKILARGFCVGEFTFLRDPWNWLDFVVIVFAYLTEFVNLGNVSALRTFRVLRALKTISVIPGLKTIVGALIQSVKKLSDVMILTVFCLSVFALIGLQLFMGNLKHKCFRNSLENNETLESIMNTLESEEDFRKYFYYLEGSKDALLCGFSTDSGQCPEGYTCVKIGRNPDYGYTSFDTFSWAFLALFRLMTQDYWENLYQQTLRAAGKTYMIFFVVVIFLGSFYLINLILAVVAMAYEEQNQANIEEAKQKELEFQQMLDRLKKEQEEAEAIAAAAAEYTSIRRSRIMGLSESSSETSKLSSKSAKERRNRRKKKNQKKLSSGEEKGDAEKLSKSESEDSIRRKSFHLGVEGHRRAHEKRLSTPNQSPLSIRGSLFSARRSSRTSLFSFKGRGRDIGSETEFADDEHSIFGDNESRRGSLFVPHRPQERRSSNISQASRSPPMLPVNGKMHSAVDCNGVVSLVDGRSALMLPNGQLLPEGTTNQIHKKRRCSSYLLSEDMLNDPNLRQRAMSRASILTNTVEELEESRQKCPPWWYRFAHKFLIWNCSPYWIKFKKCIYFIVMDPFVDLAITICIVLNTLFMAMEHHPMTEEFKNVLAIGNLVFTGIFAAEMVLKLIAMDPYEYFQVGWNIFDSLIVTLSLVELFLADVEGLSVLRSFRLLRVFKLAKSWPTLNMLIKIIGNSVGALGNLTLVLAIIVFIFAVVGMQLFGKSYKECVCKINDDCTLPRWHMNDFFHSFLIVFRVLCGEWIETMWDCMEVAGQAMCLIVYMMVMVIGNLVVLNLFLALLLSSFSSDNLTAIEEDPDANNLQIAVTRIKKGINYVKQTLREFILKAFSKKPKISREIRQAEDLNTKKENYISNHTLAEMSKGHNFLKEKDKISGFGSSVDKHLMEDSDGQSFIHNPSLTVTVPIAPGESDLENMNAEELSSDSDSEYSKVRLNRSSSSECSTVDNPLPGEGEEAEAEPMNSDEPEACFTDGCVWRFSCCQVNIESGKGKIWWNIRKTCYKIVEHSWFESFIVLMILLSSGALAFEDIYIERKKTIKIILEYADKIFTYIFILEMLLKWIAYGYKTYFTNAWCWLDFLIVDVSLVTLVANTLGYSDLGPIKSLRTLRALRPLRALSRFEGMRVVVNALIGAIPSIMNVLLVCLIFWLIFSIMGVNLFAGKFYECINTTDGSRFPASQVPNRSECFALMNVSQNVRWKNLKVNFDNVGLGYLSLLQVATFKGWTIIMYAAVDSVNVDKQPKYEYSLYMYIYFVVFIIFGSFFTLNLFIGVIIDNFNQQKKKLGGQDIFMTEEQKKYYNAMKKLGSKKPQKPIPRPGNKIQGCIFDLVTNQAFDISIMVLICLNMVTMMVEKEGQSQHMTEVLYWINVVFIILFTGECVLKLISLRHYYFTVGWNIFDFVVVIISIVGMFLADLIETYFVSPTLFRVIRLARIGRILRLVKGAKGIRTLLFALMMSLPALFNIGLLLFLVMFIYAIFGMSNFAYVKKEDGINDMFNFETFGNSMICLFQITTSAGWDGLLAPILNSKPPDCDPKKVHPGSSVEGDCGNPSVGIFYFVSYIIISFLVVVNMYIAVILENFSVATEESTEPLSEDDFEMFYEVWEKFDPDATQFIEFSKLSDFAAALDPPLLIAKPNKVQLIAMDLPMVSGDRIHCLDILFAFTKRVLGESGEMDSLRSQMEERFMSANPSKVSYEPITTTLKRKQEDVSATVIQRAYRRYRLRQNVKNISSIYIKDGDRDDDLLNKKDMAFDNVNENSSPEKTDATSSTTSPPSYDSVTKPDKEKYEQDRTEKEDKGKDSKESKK
T1 sequence (Q07699 19-218, further chain): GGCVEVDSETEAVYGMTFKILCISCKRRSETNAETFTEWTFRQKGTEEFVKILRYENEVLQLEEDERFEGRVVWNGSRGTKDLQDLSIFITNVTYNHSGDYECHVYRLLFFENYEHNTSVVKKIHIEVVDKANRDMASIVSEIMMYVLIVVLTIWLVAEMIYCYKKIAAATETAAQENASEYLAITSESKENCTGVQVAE

[2] = target: T2, rKv4.2 D281K (Rattus norvegicus, UniProt Q63881, D281K); conditions: mean ± SEM
T2 construct: expressed in transfected cells; host or cells: HEK293T
T2 sequence (Q63881 1-630 D281K): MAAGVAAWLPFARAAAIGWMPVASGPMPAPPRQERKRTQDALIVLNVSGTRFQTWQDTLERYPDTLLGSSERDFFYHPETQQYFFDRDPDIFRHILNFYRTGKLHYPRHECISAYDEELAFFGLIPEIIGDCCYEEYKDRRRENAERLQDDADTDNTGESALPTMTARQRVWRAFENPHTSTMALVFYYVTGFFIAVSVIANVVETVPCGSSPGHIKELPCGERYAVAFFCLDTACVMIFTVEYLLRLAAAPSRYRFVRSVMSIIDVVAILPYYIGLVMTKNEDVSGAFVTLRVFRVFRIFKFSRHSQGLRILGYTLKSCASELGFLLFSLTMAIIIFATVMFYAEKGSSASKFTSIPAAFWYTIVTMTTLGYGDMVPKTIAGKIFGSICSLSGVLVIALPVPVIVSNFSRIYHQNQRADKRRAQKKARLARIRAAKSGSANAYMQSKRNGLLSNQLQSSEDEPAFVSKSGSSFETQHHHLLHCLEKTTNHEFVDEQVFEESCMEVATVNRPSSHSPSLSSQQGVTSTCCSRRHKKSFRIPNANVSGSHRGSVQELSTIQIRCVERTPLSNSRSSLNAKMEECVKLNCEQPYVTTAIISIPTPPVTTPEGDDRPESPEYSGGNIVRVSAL

[3] = target: T3, rKv4.2 M279A (Rattus norvegicus, UniProt Q63881, M279A); conditions: mean ± SEM
T3 construct: expressed in transfected cells; host or cells: HEK293T
T3 sequence (Q63881 1-630 M279A): T2 sequence (Q63881 1-630 D281K) with M279A, K281D

[4] = target: T4, rKv4.2 N282A (Rattus norvegicus, UniProt Q63881, N282A); conditions: mean ± SEM
T4 construct: expressed in transfected cells; host or cells: HEK293T
T4 sequence (Q63881 1-630 N282A): T2 sequence (Q63881 1-630 D281K) with K281D, N282A

[5] = target: T5, rKv4.2 V278A (Rattus norvegicus, UniProt Q63881, V278A); conditions: mean ± SEM
T5 construct: expressed in transfected cells; host or cells: HEK293T
T5 sequence (Q63881 1-630 V278A): T2 sequence (Q63881 1-630 D281K) with V278A, K281D

[6] = HEK293T, hNav1.7 with β1 and β2, held at -90 mV, step to 0 mV, n = 3-7, read-out: IC50 for hNav1.7

In the case of `CC(C)C[C@H](NC(=O)[C@H](Cc1ccc(O)cc1)NC(=O)[C@@H](NC(=O)[C@H](CCCCN)NC(=O)[C@@H]1CSSC[C@@H]2NC(=O)[C@H](CCC(=O)O)NC(=O)[C@H](CC(N)=O)NC(=O)[C@H](CCCCN)NC(=O)CNC(=O)[C@@H]3CCCN3C(=O)[C@H]([C@@H](C)O)NC(=O)[C@@H]3CSSC[C@H](NC(=O)[C@H](C)NC(=O)[C@H](Cc4ccc(O)cc4)NC(=O)[C@H](CC(N)=O)NC(=O)[C@@H]4CCCN4C(=O)[C@H](CSSC[C@H](NC(=O)CN)C(=O)N[C@@H](CCCCN)C(=O)NCC(=O)N[C@@H](Cc4ccccc4)C(=O)NCC(=O)N[C@@H](CC(=O)O)C(=O)N[C@@H](CO)C(=O)N3)NC2=O)C(=O)N[C@@H](CO)C(=O)N[C@@H](CO)C(=O)N[C@@H](CCCCN)C(=O)N[C@@H](Cc2c[nH]cn2)C(=O)N[C@@H](CCCCN)C(=O)N[C@@H](Cc2c[nH]c3ccccc23)C(=O)N1)C(C)C)C(N)=O` [HNTX-III] (H-GCKGFGDSCTPGKNECCPNYACSSKHKWCKVYL-NH2; disulfide 2-17, 9-22, 16-29), the IC50 [1, 6] is reported as 207 ± 57.2 nM, the IC50 [2] is reported as 5000 ± 1000 nM and the IC50 [3] is reported as 1000 ± 347 nM. For the same compound, the IC50 [4] was 8 ± 2 nM and the IC50 [5] was 177 ± 63 nM.
`CC[C@H](C)[C@H](NC(=O)[C@H](CCC(=O)O)NC(=O)[C@H](Cc1ccc(O)cc1)NC(=O)[C@H](CCCCN)NC(=O)[C@@H]1CSSC[C@@H]2NC(=O)[C@H](CCC(N)=O)NC(=O)[C@H](CC(=O)O)NC(=O)[C@H](CC(N)=O)NC(=O)[C@H](CO)NC(=O)[C@@H]3CCCN3C(=O)[C@H](CC(N)=O)NC(=O)[C@@H]3CSSC[C@H](NC(=O)[C@H](C(C)C)NC(=O)[C@H](CC(C)C)NC(=O)[C@H](CC(N)=O)NC(=O)[C@H](CO)NC(=O)[C@H](CO)NC(=O)[C@H](CCCCN)NC(=O)[C@H](CSSC[C@H](NC(=O)[C@@H](N)CCC(=O)O)C(=O)N[C@@H](CC(C)C)C(=O)NCC(=O)N[C@@H](Cc4ccccc4)C(=O)NCC(=O)N[C@@H](CCCCN)C(=O)NCC(=O)N3)NC2=O)C(=O)N[C@@H](CO)C(=O)N[C@@H](CCCNC(=N)N)C(=O)N[C@@H](CCCCN)C(=O)N[C@@H](Cc2c[nH]cn2)C(=O)N[C@@H](CCCNC(=N)N)C(=O)N[C@@H](Cc2c[nH]c3ccccc23)C(=O)N1)C(N)=O` [HNTX-IV] showed an IC50 [1, 6] of 243 ± 42.5 nM, an IC50 [2] of 191 ± 32 nM and an IC50 [3] of 167 ± 14 nM. It also gave an IC50 [4] of 11 ± 2 nM and an IC50 [5] of 182 ± 50 nM.
With `CC(C)C[C@@H]1NC(=O)[C@H](Cc2c[nH]c3ccccc23)NC(=O)[C@H](Cc2ccc(O)cc2)NC(=O)[C@H](CCCNC(=N)N)NC(=O)[C@@H](NC(=O)[C@@H](N)CCC(=O)O)CSSC[C@@H]2NC(=O)[C@@H]3CSSC[C@@H](C(=O)N[C@H](C(=O)N[C@@H](Cc4c[nH]c5ccccc45)C(=O)N[C@@H](CC(=O)O)C(=O)N[C@@H](Cc4c[nH]c5ccccc45)C(=O)N[C@H](C(=O)N[C@@H](Cc4ccccc4)C(N)=O)[C@@H](C)O)C(C)C)NC(=O)[C@H](Cc4c[nH]c5ccccc45)NC(=O)CNC(=O)[C@H](Cc4c[nH]cn4)NC(=O)[C@H](CCCCN)NC(=O)[C@@H]4CCCN4C(=O)[C@H](CO)NC(=O)[C@H](CSSC[C@H](NC(=O)[C@H]([C@@H](C)O)NC(=O)CNC1=O)C(=O)N[C@@H](CO)C(=O)N[C@@H](CCCCN)C(=O)N[C@@H]([C@@H](C)O)C(=O)NCC(=O)N[C@@H](CC(=O)O)C(=O)N3)NC(=O)[C@H](CO)NC(=O)[C@H](CC(C)C)NC(=O)[C@H](Cc1c[nH]cn1)NC(=O)[C@H](CO)NC2=O` [HNTX-VIIa] (H-ECRYWLGTCSKTGDCCSHLSCSPKHGWCVWDWTF-NH2; disulfide 2-16, 9-21, 15-28) the IC50 ([1]; native toxin isolated from venom, n = 5, read-out: IC50 against hNav1.7, native HNTX-VIIa) was 50.6 ± 4.6 nM, the IC50 [1, 6] was 80.4 ± 19.6 nM and the IC50 [2] was 33 ± 6 nM. For the same compound, the IC50 [3] was 42 ± 6 nM, the IC50 [4] was 21 ± 1 nM and the IC50 [5] was 53 ± 6 nM.
In the case of `CSCC[C@@H]1NC(=O)CNC(=O)[C@H](CCC(=O)O)NC(=O)[C@@H]2CSSC[C@H](NC(=O)[C@@H](N)Cc3ccc(O)cc3)C(=O)N[C@@H](CCC(N)=O)C(=O)N[C@@H](CCCCN)C(=O)N[C@@H](Cc3c[nH]c4ccccc34)C(=O)N[C@@H](CCSC)C(=O)N[C@@H](Cc3c[nH]c4ccccc34)C(=O)N[C@@H]([C@@H](C)O)C(=O)N[C@H]3CSSC[C@H](NC(=O)[C@H](C(C)C)NC1=O)C(=O)N[C@@H](CCCNC(=N)N)C(=O)N[C@@H](CC(C)C)C(=O)N[C@@H](Cc1c[nH]c4ccccc14)C(=O)N[C@H](C(=O)N[C@@H](CCCCN)C(=O)N[C@@H](CCCCN)C(=O)N[C@@H](CCCCN)C(=O)N[C@@H](CC(C)C)C(=O)N[C@@H](Cc1c[nH]c4ccccc14)C(=O)O)CSSC[C@H](NC(=O)[C@H](CCCCN)NC(=O)[C@H](CCCNC(=N)N)NC(=O)[C@H](CCC(=O)O)NC(=O)[C@H](CO)NC(=O)[C@H](CC(=O)O)NC3=O)C(=O)N2` [ProTx-II], the IC50 [2] is reported as 27 ± 2 nM, the IC50 [3] is reported as 17 ± 5 nM and the IC50 [4] is reported as 7 ± 1 nM. It also gave an IC50 [5] of 10 ± 2 nM.
Work on `CC[C@H](C)[C@@H]1NC(=O)[C@@H]2CSSC[C@@H]3NC(=O)[C@H](C(C)C)NC(=O)[C@H](CC(C)C)NC(=O)[C@H](CC(N)=O)NC(=O)[C@@H]4CCCN4C(=O)[C@H](CCCNC(=N)N)NC(=O)[C@H](CSSC[C@H](NC(=O)[C@@H](N)CC(=O)O)C(=O)N[C@@H](CC(C)C)C(=O)NCC(=O)N[C@@H](C)C(=O)N[C@@H](Cc4ccccc4)C(=O)N[C@@H](CCCNC(=N)N)C(=O)N[C@@H](CCCCN)C(=O)N2)NC(=O)[C@H](CSSC[C@@H](C(=O)N[C@@H](CCCCN)C(=O)N[C@@H](Cc2ccc(O)cc2)C(=O)N[C@H](C(=O)N[C@@H](Cc2ccccc2)C(N)=O)C(C)C)NC(=O)[C@H](Cc2c[nH]c4ccccc24)NC(=O)[C@H](CCCNC(=N)N)NC(=O)[C@H](Cc2c[nH]cn2)NC(=O)[C@H](C)NC(=O)[C@H](CO)NC(=O)[C@H](CO)NC3=O)NC(=O)[C@H](CCCCN)NC(=O)[C@H](CC(=O)O)NC(=O)[C@H](CC(N)=O)NC(=O)[C@H](CC(=O)O)NC(=O)[C@@H]2CCCN2C1=O` [mGpTx1-SA] (H-DCLGAFRKCIPDNDKCCRPNLVCSSAHRWCKYVF-NH2; disulfide 2-17, 9-23, 16-30) yielded an IC50 [1, 6] of 40.3 ± 3.2 nM.
